Values joined by “and” are separate entries in the source; they are usually repeats but may differ in a detail not shown here. Equal values may be shown once.
Test system: RPMI-8226 cells
Test: Gene expression profiling, NanoString nCounter PanCancer Pathways Panel, ROSALIND analysis
Type: cell-based, human
Conditions: RPMI-8226, TCH-165 samples 1-3
Procedure: RPMI-8226 cells were treated with vehicle or TCH-165 (10 μM) for 4 h. Total RNA was obtained using the mirVana miRNA Isolation Kit, with phenol (Thermofisher Scientific; AM1560; Waltham, MA, USA). Total RNA was quantified by Qubit (Thermofisher Scientific; Q32855; Waltham, MA, USA). and gene expression was evaluated against the nCounter® PanCancer Pathways Panel^TM according to the standard NanoString protocol.
Data were analyzed by ROSALIND® [36] with a hyperscale architecture developed by ROSALIND, Inc. (San Diego, CA, USA). Normalization, fold changes and p-values were calculated using criteria provided by NanoString. ROSALIND follows the nCounter® Advanced Analysis protocol of dividing counts within a lane by the geometric mean of the normalizer probes from the same lane. Housekeeping probes to be used for normalization are selected based on the geNorm algorithm, as implemented in the NormqPCR R library. Fold changes and p-values are calculated using the fast method as described in the nCounter Advanced Analysis 2.0 User Manual. The p-value adjustment is performed using the Benjamini–Hochberg method of estimating false discovery rates (FDR). Clustering of genes for the final heatmap of differentially expressed genes was done using the PAM (Partitioning Around Medoids) method using the fpc R library. Hypergeometric distribution was used to analyze the enrichment of pathways, gene ontology, domain structure and other ontologies. The topGO R library was used to determine local similarities and dependencies between GO terms in order to perform Elim pruning correction. Several database sources were referenced for enrichment analysis, including Interpro [40], NCBI [41], MSigDB [42, 43], REACTOME [44], WikiPathways. Enrichment was calculated relative to a set of background genes relevant to the experiment.

SMILES: CCOC(=O)[C@]1(c2ccccc2)N=C(c2ccc(OC)cc2)N(Cc2ccccc2)[C@@H]1c1ccc(NCc2ccccc2)cc1 [TCH-165]
- LIFR normalized gene expression: 4.488 and 4.2133 and 4.184
- LIG4 normalized gene expression: 6.629 and 6.817 and 6.796
- LRP2 normalized gene expression: 4.308 and 3.657 and 4.341
- LTBP1 normalized gene expression: 6.378 and 6.402 and 6.366
- MAD2L2 normalized gene expression: 10.1336 and 10.1942 and 10.1645
- MAP2K1 normalized gene expression: 10.0208 and 10.0248 and 9.981
- MAP2K2 normalized gene expression: 10.108 and 10.1628 and 10.1486
- MAP2K4 normalized gene expression: 7.169 and 6.524 and 6.893
- MAP2K6 normalized gene expression: 4.924 and 4.855 and 5.0068
- MAP3K1 normalized gene expression: 10.6246 and 10.5002 and 10.4469
- MAP3K5 normalized gene expression: 6.704 and 6.918 and 6.75
- MAP3K8 normalized gene expression: 6.308 and 6.569 and 6.506
- MAP3K12 normalized gene expression: 5.571 and 5.476 and 5.0682
- MAP3K13 normalized gene expression: 7.948 and 7.905 and 8.019
- MAP3K14 normalized gene expression: 7.978 and 7.887 and 7.688
- MAPK1 normalized gene expression: 8.625 and 8.638 and 8.461
- MAPK3 normalized gene expression: 9.736 and 9.67 and 9.676
- MAPK8IP1 normalized gene expression: 5.86 and 4.739 and 5.0068
- MAPK8IP2 normalized gene expression: 4.208 and 3.657 and 4.39
- MAPK8 normalized gene expression: 7.835 and 7.506 and 7.597
- MAPK9 normalized gene expression: 8.658 and 8.617 and 8.437
- MAPK10 normalized gene expression: 5.101 and 4.2133 and 4.876
- MAPK12 normalized gene expression: 7.499 and 7.109 and 7.1906
- MAPT normalized gene expression: 5.355 and 5.351 and 5.5707
- MCM2 normalized gene expression: 10.402 and 10.4329 and 10.4331
- MCM4 normalized gene expression: 11.2136 and 11.1596 and 11.149
- MCM5 normalized gene expression: 10.3105 and 10.197 and 10.1802
- MCM7 normalized gene expression: 13.0908 and 13.0284 and 12.9867
- MDC1 normalized gene expression: 10.2272 and 10.2142 and 10.1897
- MDM2 normalized gene expression: 10.4133 and 10.3393 and 10.3264
- MECOM normalized gene expression: 7.156 and 6.927 and 6.814
- MED12 normalized gene expression: 8.477 and 8.644 and 8.469
- MEN1 normalized gene expression: 9.714 and 9.644 and 9.611
- MET normalized gene expression: 5.924 and 5.093 and 5.613
- MFNG normalized gene expression: 9.115 and 9.16 and 9.044
- MGMT normalized gene expression: 8.108 and 8.085 and 8.034
- MLF1 normalized gene expression: 5.86 and 5.9093 and 5.712
- MLH1 normalized gene expression: 9.392 and 9.378 and 9.34
- MLLT3 normalized gene expression: 6.776 and 6.688 and 6.449
- MLLT4 normalized gene expression: 8.677 and 8.597 and 8.636
- MMP3 normalized gene expression: 4.401 and 3.27 and 4.341
- MMP7 normalized gene expression: 5.571 and 5.242 and 5.238
- MMP9 normalized gene expression: 4.649 and 4.855 and 4.0068
- MNAT1 normalized gene expression: 8.319 and 8.402 and 8.366
- MPL normalized gene expression: 4.308 and 4.154 and 3.805
- MPO normalized gene expression: 4.986 and 4.569 and 4.876
- MSH2 normalized gene expression: 9.884 and 9.976 and 9.945
- MSH6 normalized gene expression: 10.1754 and 9.989 and 10.0455
- MTOR normalized gene expression: 9.008 and 8.985 and 8.893
- MUTYH normalized gene expression: 6.74 and 6.512 and 6.663
- MYB normalized gene expression: 9.142 and 9.166 and 9.1468
- MYC normalized gene expression: 12.5611 and 12.5765 and 12.4952
- MYCN normalized gene expression: 7.142 and 6.817 and 6.893
- MYD88 normalized gene expression: 8.723 and 8.683 and 8.623
- NASP normalized gene expression: 8.252 and 8.093 and 8.307
- NBN normalized gene expression: 10.4814 and 10.4965 and 10.3946
- NCOR1 normalized gene expression: 9.769 and 9.64 and 9.618
- NF1 normalized gene expression: 9.325 and 9.277 and 9.208
- NF2 normalized gene expression: 9.205 and 9.097 and 9.096
- NFATC1 normalized gene expression: 5.355 and 5.427 and 5.461
- NFE2L2 normalized gene expression: 10.2602 and 10.1647 and 10.2373
- NFKB1 normalized gene expression: 8.156 and 8.124 and 8.177
- NFKBIA normalized gene expression: 9.249 and 9.354 and 9.231
- NGFR normalized gene expression: 5.445 and 5.154 and 5.098
- NODAL normalized gene expression: 5.445 and 5.093 and 4.876
- NOG normalized gene expression: 4.208 and 4.739 and 4.653
- NOS3 normalized gene expression: 5.044 and 4.524 and 4.5707
- NOTCH1 normalized gene expression: 8.62 and 8.452 and 8.261
- NOTCH2 normalized gene expression: 10.6545 and 10.568 and 10.5378
- NPM1 normalized gene expression: 7.667 and 7.529 and 7.245
- NPM2 normalized gene expression: 2.401 and 2.739 and 2.805
- NR4A1 normalized gene expression: 6.924 and 6.944 and 6.759
- NR4A3 normalized gene expression: 4.488 and 4.427 and 4.769
- NRAS normalized gene expression: 7.581 and 7.678 and 7.663
- NTF3 normalized gene expression: 7.456 and 7.1988 and 7.251
- NTHL1 normalized gene expression: 9.395 and 9.328 and 9.318
- NTRK1 normalized gene expression: 4.793 and 3.569 and 3.483
- NTRK2 normalized gene expression: 4.793 and 5.093 and 4.5707
- NUMBL normalized gene expression: 5.955 and 5.891 and 5.693
- NUPR1 normalized gene expression: 6.073 and 6.228 and 6.3536
- OSM normalized gene expression: 5.101 and 5.636 and 5.0682
- PAK3 normalized gene expression: 4.488 and 4.27 and 3.876
- PAX3 normalized gene expression: 4.649 and 4.029 and 4.0682
- PAX5 normalized gene expression: 4.986 and 3.962 and 4.693
- PAX8 normalized gene expression: 5.723 and 5.297 and 5.366
- PBRM1 normalized gene expression: 9.417 and 9.5 and 9.432
- PBX1 normalized gene expression: 8.776 and 8.575 and 8.5707
- PBX3 normalized gene expression: 6.53 and 6.427 and 6.426
- PCK1 normalized gene expression: 3.208 and 3.3768 and 3.0682
- PCNA normalized gene expression: 10.03 and 10.0442 and 10.0502

From PMC9138505, “Small Molecule 20S Proteasome Enhancer Regulates MYC Protein Stability and Exhibits Antitumor Activity in Multiple Myeloma” (Biomedicines, 2022)
